In patent publication US20020077322A1, “Protection of neurons against glutamate-induced damage in glaucoma and other conditions” (priority 2000, published 2002):

Key:
Type in all cases: in vivo, C57/BL6 mice
retinal ganglion cells [1] = assay: Effect of cannabinoid antagonists on WIN protection of NMDA-treated retinal ganglion cells (Example 3); conditions: preliminary tests
Method: A topical application of 0.5% proparacaine hydrochloride was administered prior to intravitreal injections. A small incision was made with a 22-gauge needle in the dorsal limbus, through the conjunctiva and sclera. A Hamilton syringe was passed through this incision at a 40 to 50 degree angle to the equator to administer the solution. All eyes were injected with 0.5 μl of solution. All procedures were performed under microscopy. […] These mice were not used in the analysis.
Tissue Preparation: Flat mount preparations of the retinae and counts of cells in the retinal ganglion cell layers were performed to evaluate cell loss. Ten days after intravitreal injections, animals were euthanized by an intraperitoneal overdose injection of pentobarbital. Animals were immediately perfused with 4% paraformaldehyde, and the eyes enucleated. The retinae were dissected and mounted onto gelatinized slides, ganglion cell layer up. […]

retinal ganglion cells [2] = assay: Topical WIN55212-2 after intravitreal NMDA; counts of surviving retinal ganglion cells (Example 2)
Method: (§1) Experiments were performed on adult C57/BL6 mice of an average of 4 months, weighing 15-25 g. Animals were given food and water ad libitum. All studies were conducted in accordance with the principles and procedures outlined in the National Institute of Health (NIH) Guide for the Care and Use of Laboratory Animals.
Two sterile solutions were administered by intravitreal injection: balanced saline solution, and NMDA (Sigma). The NMDA solution was comprised of 320 mM NMDA in balanced saline solution (net of 160 nmol of NMDA injected per eye).
(§2) Intravitreal Injections: Mice were anaesthetized by intraperitoneal injection of 0.017 ml/g body weight of a solution containing 1.75% tribromoethanol and 1.75% tertiary amyl alcohol. A topical application of 0.5% proparacaine hydrochloride was administered prior to intravitreal injections. A small incision was made with a 22-gauge needle in the dorsal limbus, through the conjunctiva and sclera. A Hamilton syringe was passed through this incision at a 40 to 50 degree angle to the equator to administer the solution. All eyes were injected with 0.5μl of solution. All procedures were performed under microscopy. Occasionally this procedure produced cataracts in mice (less than 5%) due to damage to the lens with the syringe. These mice were not used in the analysis.
Topical Application of cannabinoid: A topical application solution of WIN55212-2 (Sigma) was prepared in 2-hydroxypropyl-β-cyclodextrin (Sigma). This solution contained 2.4 mg of WIN55212-2 in 1 ml 2-hydroxypropyl-β-cyclodextrin.
10 μl of this WIN55212-2 solution was applied to the anterior surface of the eye. In the experiments described, it was applied three times daily on one eye only. The applications of the WIN solution began one day after the NMDA injections were made, to allow time for the surface of the eye to heal, and the topical applications were made for 9 days. Thus, while each eye received the NMDA injections, only one eye of each animal had the WIN solution applied onto it.
Tissue Preparation: Flat mount preparations of the retinae and counts of cells in the retinal ganglion cell layers were performed to evaluate cell loss. Ten days after intravitreal injections, animals were euthanized by an intraperitoneal overdose injection of pentobarbital. Animals were immediately perfused with 4% paraformaldehyde, and the eyes enucleated. The retinae were dissected and mounted onto gelatinized slides, ganglion cell layer up. Several radial cuts were made at the periphery, and the surface was cleared and flattened with a fine brush (camel hair, size 0). […]
Morphometric Analysis: The ganglion cell layer was imaged at 400X and 630X and cells were counted within 120×120 μm square grids. […]

retinal ganglion cells [3] = assay: Intravitreal NMDA with or without co-injected WIN 55,212-2; counts of surviving cells in the retinal ganglion cell layer (Example 1)
Method: as §1
Three sterile solutions were administered by intravitreal injection: balanced saline solution, NMDA (Sigma) and NMDA plus WIN 55,212-2 (Sigma). The NMDA solution was comprised of 320 mM NMDA in balanced saline solution (net of 160 nmol of NMDA injected per eye). The WIN solution contained 0.5 mM WIN 55,212-2 in the NMDA solution using a DMSO vehicle (less than 0.1% of solution) to carry WIN (net of 0.25 nmol of WIN injected per eye).
as §2, with “Injections” for “Injections:”, “0.5 μl” for “0.5μl”
Tissue Preparation Flat mount preparations of the retinae and counts of cells in the retinal ganglion cell layers were performed to evaluate cell loss. Ten days after intravitreal injections, animals were euthanized by an intraperitoneal overdose injection of pentobarbital. Animals were immediately perfused with 4% paraformaldehyde, and the eyes enucleated. The retinae were dissected and mounted onto gelatinized slides, ganglion cell layer up. Several radial cuts were made at the periphery, and the surface was cleared and flattened with a fine brush (camel hair, size 0). The flat mounted retinae were immersed overnight in a solution containing 10% formaldehyde and 90% alcohol. The sections were subsequently dehydrated and stained with 0.5-1% cresyl violet and enclosed with coverslips.
Morphometric Analysis (Quantification of Cell Loss in the Retinal Ganglion Cell Layer) The ganglion cell layer was imaged at 400×and cells were counted within 70×70 um grids. […] Quandrant counts from each retina were averaged to give the value for each eye. Morphologically distinguishable glial cells and vascular endothelial cells were excluded from the cell count, but no attempt was made to distinguish between ganglion and amacrine cells. […]

[4] = intravitreal, 160 nmol NMDA per eye, 10 day period, vs saline eye
[5] = single intravitreal application, 0.25 nmol WIN per eye with NMDA, 10 days

## COc1ccc(C(=O)c2c(C)n(CCN3CCOCC3)c3cc(I)ccc23)cc1 [AM 630]
Retinal ganglion cells [1]
  cell counts with CB2 antagonist in combination with WIN and NMDA: same cell counts as the WIN+NMDA eye

## CN[C@H](CC(=O)O)C(=O)O [NMDA, N-methyl-D-aspartate]
Retinal ganglion cells [2]; [4]
  loss of retinal ganglion cells caused by NMDA: 70%
Retinal ganglion cells [3]; [4]
  loss of retinal ganglion cells caused by NMDA: 70%

## Cc1c(C(=O)c2cccc3ccccc23)c2cccc3c2n1[C@H](CN1CCOCC1)CO3 [WIN]
Retinal ganglion cells [2]; NMDA-treated retina, unilateral topical WIN55212-2
  excitotoxic damage in ganglion cell layer, photomicrographs (FIG. 4): ameliorated the excitotoxic damage
Retinal ganglion cells [2]; WIN applied topically to the other eye, presumably systemic delivery
  retinal ganglion cells protected, contralateral eye (no WIN directly applied): about 25%
Retinal ganglion cells [2]; topical WIN on days 2-9, 10 day period
  resulting loss of ganglion cells, NMDA plus topical WIN, treated eye: 30%
Retinal ganglion cells [3]; FIG. 5 left pair of bars, data taken from Example 1
  increase in number of surviving ganglion cells (NMDA+WIN vs NMDA eye): by a factor of two
Retinal ganglion cells [3]; [5]
  diminution of NMDA-induced ganglion cell loss: 80%
  resulting loss of ganglion cells with NMDA plus WIN: 30%
